One data set concerns Leukemic blasts. Briefly: Minimal residual disease (MRD) evaluated by flow cytometry on bone marrow samples. The format is in vivo, human. How it is done:
FIG. 1A. Minimal residual disease (MRD) evaluated by flow cytometry. All patients were monitored for CD22 expression before treatment and then for phenotypic MRD. Leukemic blasts were evaluated using a 8 colors panel including antibodies to CD45, CD19, CD10, CD34, CD38, CD58, CD20 and CD22. MRD was assessed, concomitantly to responses, between 4 and 6 weeks after beginning the salvage regimen using flow cytometry (FACS CANTO II, BD, Biosciences, San Jose, Calif.) performed on bone marrow samples. Two different anti-CD22 antibodies were used. The RFB4 antibody (PE conjugated, Invitrogen, Camarillo, Calif.) and epratuzumab bind competitively to CD22, meaning that in the presence of epratuzumab, RFB4 binding is blocked. By contrast, the SHCL-1 antibody (PE or PerCp-Cy5.5 conjugated, BD Biosciences, San Jose, Calif.) binds to a non-crossblocking epitope and can be used to assess the modulation of the CD22 antigen on the blasts surface. […] Case 1: An example of positive MRD. Leukemic blasts were both CD22-RFB4 and CD22-SHCL-1 positive before treatment. After treatment, the percentage of blasts is estimated at 0.05%.
FIG. 1B. Minimal residual disease (MRD) evaluated by flow cytometry. All patients were monitored for CD22 expression before treatment and then for phenotypic MRD. Leukemic blasts were evaluated using a 8 colors panel including antibodies to CD45, CD19, CD10, CD34, CD38, CD58, CD20 and CD22. MRD was assessed, concomitantly to responses, between 4 and 6 weeks after beginning the salvage regimen using flow cytometry (FACS CANTO II, BD, Biosciences, San Jose, Calif.) performed on bone marrow samples. Two different anti-CD22 antibodies were used. The RFB4 antibody (PE conjugated, Invitrogen, Camarillo, Calif.) and epratuzumab bind competitively to CD22, meaning that in the presence of epratuzumab, RFB4 binding is blocked. By contrast, the SHCL-1 antibody (PE or PerCp-Cy5.5 conjugated, BD Biosciences, San Jose, Calif.) binds to a non-crossblocking epitope and can be used to assess the modulation of the CD22 antigen on the blasts surface. […] Case 2: An example of “negative” MRD. Leukemic blasts (CD10/CD20 negative) are both CD22-RFB4 and CD22-SHCL-1 positive before treatment. After treatment, MRD was <10^−5.

Data set [1] concerns relapsed/refractory CD22+B-ALL. In words: Prospective Phase 2 study of epratuzumab added to vincristine and dexamethasone (salvage chemoimmunotherapy). The format is in vivo, human. How it is done:
Here, we have evaluated the addition of epratuzumab (hLL2, 360 mg/m^2/d iv on days 1, 8, 15, and 22) to the combination of vincristine (2 mg iv, days 1, 8, 15 and 22) and dexamethasone (40 mg/d po, days 1, 8, 15, and 22) in patients >55 years old, with relapsed/refractory CD22+B-ALL. Dexamethasone was administered before epratuzumab administration+paracetamol 1 g as prophylaxis in order to prevent epratuzumab infusion reactions. Also, intrathecal injections of methotrexate 15 mg, aracytine 40 mg, and depomedrol 40 mg were recommended on days 1 and 8.
This prospective Phase 2 study was conducted at 6 French centers and was approved by the Brest ethical committee and the clinical trial department of the “Agence Française de Sécurité Sanitaire des Produits de Santé” (AFSSAPS). This trial is registered as NCT01219816. Epratuzumab was supplied by Immunomedics, Inc. (Morris Plains, N.J., USA). Written informed consent was obtained from each patient.
The main objective of the study was the CR rate defined by patients reaching CR+CR without platelets recovery (CRi). CR was defined as <5% marrow blasts, neutrophils >1×10^9/L, platelets >100×10^9/L and no evidence of extramedullary disease. CRi was defined similarly but without recovery of platelets counts. Partial response (PR) was defined as a decrease of >50% of blasts in the bone marrow.
(§1) Responses were evaluated between 4 and 6 weeks post-salvage regimen. Patients in response (CR, CRi or PR) were allowed to receive a second cycle as consolidation. Toxicity was evaluated according to the NCI-CTC criteria version 4. Cytologic, phenotypic, karyotype and BCR-ABL1 (for Ph+B-ALL) molecular analyses were performed on blood samples and/or BM aspirates by standard methods.
Over a three year period, 26 patients were enrolled. One case was excluded because of progression before receiving the treatment, while 2 younger patients were inappropriately included (person in fourth relapse and a person with refractory second relapse). All the 25 treated patients were considered for analysis.

A further data set deals with CD22. In words: CD22 expression on blasts after treatment, flow cytometry with RFB4 and SHCL-1 anti-CD22 antibodies. The data set is classed as cell-based, human. The note with it: non-responders and three patients with detectable MRD. The method, then: FIG. 1A. Minimal residual disease (MRD) evaluated by flow cytometry. All patients were monitored for CD22 expression before treatment and then for phenotypic MRD. Leukemic blasts were evaluated using a 8 colors panel including antibodies to CD45, CD19, CD10, CD34, CD38, CD58, CD20 and CD22. MRD was assessed, concomitantly to responses, between 4 and 6 weeks after beginning the salvage regimen using flow cytometry (FACS CANTO II, BD, Biosciences, San Jose, Calif.) performed on bone marrow samples. Two different anti-CD22 antibodies were used. The RFB4 antibody (PE conjugated, Invitrogen, Camarillo, Calif.) and epratuzumab bind competitively to CD22, meaning that in the presence of epratuzumab, RFB4 binding is blocked. […]
FIG. 1B. Minimal residual disease (MRD) evaluated by flow cytometry. All patients were monitored for CD22 expression before treatment and then for phenotypic MRD. Leukemic blasts were evaluated using a 8 colors panel including antibodies to CD45, CD19, CD10, CD34, CD38, CD58, CD20 and CD22. MRD was assessed, concomitantly to responses, between 4 and 6 weeks after beginning the salvage regimen using flow cytometry (FACS CANTO II, BD, Biosciences, San Jose, Calif.) performed on bone marrow samples. […]

Data set [2] is described as follows: Toxicity evaluated according to the NCI-CTC criteria version 4. The data set is classed as in vivo, human. The method, then:
as §1

The conditions of data set [3]: in subjects; cited from earlier work.
Where [4] appears, read: combination with vincristine and dexamethasone, 25 treated patients.
[5] abbreviates: combination with vincristine and dexamethasone, of 25 treated patients.
Where [6] appears, read: combination with vincristine and dexamethasone, six Ph+B-ALL patients.
[7] abbreviates: combination with vincristine and dexamethasone, unclear etiology.

“And” between values parts separate entries of the source, which are not always exact repeats. Identical values can stand only once. Bounds are passed on as bounds.

Turning to “epratuzumab: anti-CD22 humanized antibody (Immunomedics, Inc.); given here with vincristine and dexamethasone”, the “percentage of blasts after treatment” value in the data set on Leukemic blasts (FIG. 1A, Case 1, example of positive MRD) turned out to be 0.05%. Also, in the data set with Leukemic blasts (FIG. 1B, Case 2, example of negative MRD), the MRD after treatment is < 10^−5. The “number of CR/CRi patients with undetectable MRD” value with Leukemic blasts (combination with vincristine and dexamethasone, 5 CR/CRi patients) was 2. The “MRD evaluated by cytometry, individual responder patient” value in the data set with Leukemic blasts (combination with vincristine and dexamethasone, CR/CRi patient with detectable MRD) was 1.2%. The “MRD evaluated by cytometry, individual responder patients” value in the data set with Leukemic blasts (combination with vincristine and dexamethasone, CR/CRi patients with detectable MRD) is 5×10^−4 and 7×10^−3. In data set [1] (setting [4]), the “CR+CRi rate” value turned out to be 20%, the PR rate turned out to be 20% and the “patients who died during treatment due to progression of the disease” value was “Two”. In data set [1] (setting [5]), the “number of patients with CR” value was determined as 4, the “number of patients with CRi” value worked out at 1 and the “number of patients with PR” value is given as 5. Further, the median leukemia-free survival in data set [1] (combination with vincristine and dexamethasone, patients achieving CR/CRi, range 1-8) is reported as 3.8 months. In data set [1] (setting [6]), the “number of patients with CR among Ph+B-ALL patients” value is 2 and the “number of patients with PR among Ph+B-ALL patients” value is listed as 1. For the same substance, the “1-year OS” value in data set [1] (combination with vincristine and dexamethasone, whole cohort N=25, estimated) is listed as 13+7%. Further, the “median overall survival (OS)” value in data set [1] (combination with vincristine and dexamethasone, whole cohort N=25, range 0.5-43) was 4 months. The overall response rate in data set [1] (epratuzumab 360 mg/m2/d iv + vincristine 2 mg iv + dexamethasone 40 mg/d po, days 1, 8, 15, 22, 25 treated patients, evaluated 4-6 weeks post-salvage) was determined as 40%. For the same substance, the “targeting of CD22 on residual blasts (RFB4 negative, SHCL-1 positive)” value in the data set with CD22 is “persistent targeting of epratuzumab on blasts without loss of the CD22/epratuzumab complex from the cell surface”. Moreover, in data set [2] (combination with vincristine and dexamethasone, large majority of grade 3/4 toxicities were expected pancytopenia), the “tolerability of salvage regimen” value is reported as “generally tolerated well”. Besides, in data set [2] (setting [7]), the “grade-3 renal toxicity, number of cases” value was “One” and the “grade-4 hypertriglyceridemia, number of cases” value was “one”. Further, the “grade-3 allergic toxicity, number of cases” value in data set [2] (related to the first epratuzumab infusion) was “One”.
With “veltuzumab: humanized IgG1 antibody against CD20”, the “immunogenicity compared with rituximab” value in data set [3] is “less immunogenic”.

Values taken from patent US20160304611A1, “COMBINATION THERAPY FOR TREATING ADULT PATIENTS WITH RELAPSED/REFRACTORY CD22+ B-CELL ACUTE LYMPHOBLASTIC LEUKEMIA” (Immunomedics, Inc., priority 2015, published 2016).
